Earlier results, collected in patent publication US20040018228A1, “Compositions and methods for reducing scar tissue formation” (Afmedica, Inc., priority 2000, published 2004).

What was measured:
keloids = settings: in vivo

SMILES | solubility in aqueous solutions | treatment of keloids (keloids)
CO[C@H]1C[C@@H]2CC[C@@H](C)[C@@](O)(O2)C(=O)C(=O)N2CCCC[C@H]2C(=O)O[C@H]([C@H](C)C[C@@H]2CC[C@@H](O)[C@H](OC)C2)CC(=O)[C@H](C)/C=C(\C)[C@@H](O)[C@@H](OC)C(=O)[C@H](C)C[C@H](C)/C=C/C=C/C=C/1C [sirolimus] | not to be readily soluble in aqueous solutions | –
C=CC[C@@H]1/C=C(\C)C[C@H](C)C[C@H](OC)[C@H]2O[C@@](O)(C(=O)C(=O)N3CCCC[C@H]3C(=O)O[C@H](/C(C)=C/[C@@H]3CC[C@@H](O)[C@H](OC)C3)[C@H](C)[C@@H](O)CC1=O)[C@H](C)C[C@@H]2OC [tacrolimus] | – | effectively treat keloids
